Publication PMC12498190, “A Photocaged N‐Phosphonopiperidinone as a Selective Photo‐Cleavable DPP8/9 Inhibitor” (Chembiochem, 2025)
Read-outs that look alike come from different tables or passages of the source.

Tests used:
[1] = type: physicochemical; details: 50 µM in 10% acetonitrile/water, green LED 520-530 nm, 30 W
Experimental: With 5 in our hands, we then started our probe characterization by determining the velocity of the photorelease reaction, i.e., the light‐triggered cleavage of the photocage, thereby delivering again the “active” inhibitor 1. To this end, a 50 µM solution of 5 in 10% acetonitrile in MS‐grade water was irradiated with a green LED lamp (λ = 520‐530 nm, 30 W) for the indicated time periods, and the release of the active inhibitor 1 was quantified via liquid chromatography‐mass spectrometry (LC–MS) analysis (Figure 1A). […] After 3 min, cleavage was quantitative (>99%). Importantly, the only products observed were the desired ‘free’ inhibitor 1 and the cleaved photogroup, indicating a clean activation to 1.
Figure 1 DPP inhibition by photo‐cleavable inhibitors. A) LC‐MS analysis of the photocleavage reaction of 5 after irradiation with green light. 50 µM of compound 5 was irradiated with a green LED lamp (λ = 520‐530 nm, 30 W) for up to 5 min, and the resulting reaction mixture was analyzed via LC‐MS. […] B) Resulting quantification of the photolysis of 5 based on peak areas depicted in A) (n = 3 technical replicates). […] Enzyme activity was determined by measuring the release of AMC from the substrate GP‐AMC. […]
Compound 5 was dissolved in DMSO. In order to quantify the effect of irradiation time on photocleavage of the BODIPY moiety, 50 µL aliquots of a 50 µM solution of 5 in 10% acetonitrile (ACN; VWR Chemicals, USA) in MS‐grade water (VWR Chemicals, USA) were irradiated for 0–5 min with a green LED lamp (λ = 520–530 nm, 30 W; Eurolite, Germany) at room temperature (RT) and gentle shaking (final DMSO concentration: 0.5%).
Quantification of inhibitor release was then determined via LC‐MS on an LTQ XL linear ion trap mass spectrometer (ITMS; Thermo Fisher Scientific, USA) coupled to a DIONEX UltiMate 3000 system (Thermo Fisher Scientific, USA), operated using Xcalibur software 4.4.16.14. […] Quantification was done using Freestyle v1.6. based on the UV spectra (λ = 254 nm) using the Avalon peak detection algorithm. […]

DPP9 = DPP9 (Homo sapiens, UniProt Q86TI2); test: Progress-curve kinetics of covalent DPP9 inhibition (kinact, KI); type: biochemical; parameters: purchased Proteros Biostructures GmbH, Germany; details: dark
Chain of DPP9 (Q86TI2 whole entry): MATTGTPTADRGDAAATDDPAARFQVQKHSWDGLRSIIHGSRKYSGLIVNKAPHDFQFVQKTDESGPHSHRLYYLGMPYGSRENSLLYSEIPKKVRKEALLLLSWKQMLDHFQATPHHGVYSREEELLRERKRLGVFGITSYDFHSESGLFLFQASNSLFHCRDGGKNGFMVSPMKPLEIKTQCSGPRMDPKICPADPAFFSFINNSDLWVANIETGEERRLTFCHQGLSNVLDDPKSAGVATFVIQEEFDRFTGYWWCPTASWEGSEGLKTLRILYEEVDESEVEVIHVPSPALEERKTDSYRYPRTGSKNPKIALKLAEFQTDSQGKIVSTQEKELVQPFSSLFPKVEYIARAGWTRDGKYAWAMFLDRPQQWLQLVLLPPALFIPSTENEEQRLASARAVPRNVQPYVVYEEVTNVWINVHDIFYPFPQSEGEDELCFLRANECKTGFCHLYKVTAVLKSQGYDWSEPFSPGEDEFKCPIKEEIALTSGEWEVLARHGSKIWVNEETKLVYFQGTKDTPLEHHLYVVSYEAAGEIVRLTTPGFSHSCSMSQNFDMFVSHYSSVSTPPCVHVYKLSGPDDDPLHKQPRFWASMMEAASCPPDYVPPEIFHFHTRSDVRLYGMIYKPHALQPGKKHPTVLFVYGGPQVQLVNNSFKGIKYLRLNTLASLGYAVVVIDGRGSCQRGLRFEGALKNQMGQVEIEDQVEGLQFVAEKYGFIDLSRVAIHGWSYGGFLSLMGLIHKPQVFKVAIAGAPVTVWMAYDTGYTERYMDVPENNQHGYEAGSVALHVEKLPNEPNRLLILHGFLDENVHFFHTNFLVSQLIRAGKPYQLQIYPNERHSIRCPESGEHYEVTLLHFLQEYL
From the text: As previously shown by us, 1 inhibits DPP8 and DPP9 via a covalent modification of the active site serine.^[ [31] ^] Therefore, we also measured the time dependence of this covalent modification of the target enzyme by recording progress curves for the inhibition of DPP8 and 9 and using them to calculate the corresponding binding affinity (KI), maximum enzyme inhibition rate (kinact) as well as the efficiency of covalent bond formation (kinact/KI) values for 5 after and without green light irradiation ( Figure S1 and Table S1, Supporting Information).
To calculate the reaction rate of covalent bond formation between DPP proteins and the inhibitor, kinact, KI, and kinact/KI were determined as previously described.^[ [49] ^, [50] ^] To this end, a dilution series of 5 was irradiated using a green LED lamp (λ = 520−530 nm; Eurolite, Germany) for 5 min and subsequently mixed with 250 µM GP‐AMC. The mixture was then added to 10 nM enzyme, and the resulting activity was measured for a maximum of 60 min at 30 °C. Fluorescence intensities were plotted against time and data were fitted to the following equation: [drawing 1] using Graph‐Pad Prism v10.4.1. The obtained pseudo first‐order rate constant was used to determine kinact and KI by fitting the plot of kobs against inhibitor concentration to the following equation: [drawing 2] . The efficiency of covalent bond formation (kinact/KI) was calculated by the ratio of kinact/KI. All measurements were performed in triplicate, and error bars represent standard errors of the fit.
Supplementary Figure 1. Kinetic analysis of DPP8 and DPP9 inhibition by compound 5. The pseudo-first order rate constant (kobs) was calculated from an exponential regression of progress curves and plotted against the concentration of compound 5. All measurement were performed in triplicate (n = 3 technical replicates), mean values are shown and error bars indicate the standard error of the mean (SEM). Inhibition assay was performed with DPP8 (A, B) and DPP9 (C, D) under ‘dark’ (A, C) and ‘light’ (B, D) conditions. […]

## CCCCCc1ccc(SCCP(=O)(OCC)N2CCC[C@H](NC(=O)OCC3=C4C(C)=CC(C)=[N+]4[B-](C)(C)n4c(C)cc(C)c43)C2=O)cc1 (some centres unmarked) [Compound 5]
[1]; after 2 min
  Photocage cleaved off: 95%
[1]; after 3 min
  Photocage cleaved off: > 99%
DPP9
  KI (inactivation): 32.2 µM
  kinact: 0.000464 s⁻¹
  kinact/KI: 14 M⁻¹ s⁻¹
